Consider 23 compounds from US20220033397A1, “PHARMACEUTICAL COMPOUNDS AND THEIR USE AS INHIBITORS OF UBIQUITIN SPECIFIC PROTEASE 19 (USP19)” (ALMAC DISCOVERY LIMITED, priority 2018, published 2022).

In this experiment the target is T1, Full-length USP19 (Homo sapiens, UniProt O94966).
T1 construct: Full-length USP19 was purchased from Boston Biochem (E-576); purchased Boston Biochem E-576
T1 sequence (O94966 1-1318): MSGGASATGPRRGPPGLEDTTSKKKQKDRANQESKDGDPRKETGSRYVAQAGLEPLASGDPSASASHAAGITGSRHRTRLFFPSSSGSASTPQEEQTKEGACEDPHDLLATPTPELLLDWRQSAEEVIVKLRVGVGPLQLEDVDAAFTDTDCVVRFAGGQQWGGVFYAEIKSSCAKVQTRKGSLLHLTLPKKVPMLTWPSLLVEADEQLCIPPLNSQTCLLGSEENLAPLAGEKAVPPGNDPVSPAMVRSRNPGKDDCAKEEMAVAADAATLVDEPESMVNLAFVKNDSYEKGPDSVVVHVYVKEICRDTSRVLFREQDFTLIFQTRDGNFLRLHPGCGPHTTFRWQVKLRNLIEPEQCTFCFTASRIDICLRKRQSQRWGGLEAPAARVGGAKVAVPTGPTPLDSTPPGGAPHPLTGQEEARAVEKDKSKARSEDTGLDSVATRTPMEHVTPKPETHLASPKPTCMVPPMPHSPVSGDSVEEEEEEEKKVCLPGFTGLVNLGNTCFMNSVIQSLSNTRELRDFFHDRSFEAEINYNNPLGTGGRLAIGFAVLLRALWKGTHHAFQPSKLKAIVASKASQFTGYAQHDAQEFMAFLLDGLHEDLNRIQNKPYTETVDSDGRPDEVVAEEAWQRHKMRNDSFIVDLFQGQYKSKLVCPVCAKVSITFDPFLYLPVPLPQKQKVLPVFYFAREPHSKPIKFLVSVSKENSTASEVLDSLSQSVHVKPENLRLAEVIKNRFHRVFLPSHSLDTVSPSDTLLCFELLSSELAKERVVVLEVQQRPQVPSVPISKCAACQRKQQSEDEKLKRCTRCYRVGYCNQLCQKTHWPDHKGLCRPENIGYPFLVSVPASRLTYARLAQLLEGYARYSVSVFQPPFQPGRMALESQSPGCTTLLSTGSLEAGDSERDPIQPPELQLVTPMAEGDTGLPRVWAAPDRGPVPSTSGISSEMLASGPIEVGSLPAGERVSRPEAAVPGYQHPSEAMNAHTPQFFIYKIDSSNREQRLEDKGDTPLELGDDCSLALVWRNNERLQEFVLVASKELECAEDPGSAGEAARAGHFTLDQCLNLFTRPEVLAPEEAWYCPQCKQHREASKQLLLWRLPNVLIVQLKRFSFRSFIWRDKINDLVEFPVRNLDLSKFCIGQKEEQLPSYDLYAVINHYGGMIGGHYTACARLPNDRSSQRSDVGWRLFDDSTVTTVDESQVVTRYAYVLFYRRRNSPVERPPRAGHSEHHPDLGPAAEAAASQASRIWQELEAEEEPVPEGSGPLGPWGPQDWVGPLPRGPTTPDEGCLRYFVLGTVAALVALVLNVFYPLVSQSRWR
Nature of the experiment: USP19 fluorescence polarisation (FP) homogeneous assay with Ubiquitin-Lys-TAMRA substrate. The experiment is classed as biochemical. Conditions: 2.5 nM USP19, 30 min pre-incubation, average of at least two duplicate experiments. The method in brief:
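Full-length USP19 preincubated 30 min at RT with inhibitor (200 μM to 2 μM series, 8–18 points) before adding 500 nM Ubiquitin-Lys-TAMRA substrate.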
(Polarisation of emitted light reports the rotation of a fluorescent probe.)

Each structure is given as a SMILES string. pIC50: −log10 of the molar value.

Take `O=C(N1CCC(O)(Cn2cnc(-c3ccccc3)cc2=O)C2(CCCC2)C1)N1CCC[C@H]1c1ncn[nH]1` (stereo partly drawn) [Example 268, 3-((7-((S)-2-(1H-1,2,4-Triazol-5-yl)pyrrolidine-1-carbonyl)-10-hydroxy-7-azaspiro[4.5]decan-10-yl)methyl)-6-phenylpyrimidin-4(3H)-one]: the pIC50 was 3.60 to 4.30. As to `COc1cccc(-c2cc(=O)n(C[C@]3(O)CCN(C(=O)N4CCNC[C@H]4c4ccccc4)CC34CCCC4)cn2)c1` [Example 338, 3-(((S)-10-Hydroxy-7-((R)-2-phenylpiperazine-1-carbonyl)-7-azaspiro[4.5]decan-10-yl)methyl)-6-(3-methoxyphenyl) pyrimidin-4(3H)-one], the pIC50 was greater than 6.30.

In the case of `Cn1ncc2c(=O)n(CC3(O)CCN(C(=O)N4CCNC[C@H]4c4ccccc4)CC34CCCC4)cnc21` (stereo partly drawn) [Example 182, 5-((10-Hydroxy-7-((R)-2-phenylpiperazine-1-carbonyl)-7-azaspiro[4.5]decan-10-yl)methyl)-1-methyl-1,5-dihydro-4H-pyrazolo[3,4-d]pyrimidin-4-one], the pIC50 was greater than 6.30. Consider `C[C@H](CC1CCCCC1)C(=O)N1CCC(O)(Cn2cnc3cn(C)nc3c2=O)C2(CCCC2)C1` (stereo partly drawn) [Example 173, 6-((7-((R)-3-Cyclohexyl-2-methylpropanoyl)-10-hydroxy-7-azaspiro[4.5]decan-10-yl)methyl)-2-methyl-2,6-dihydro-7H-pyrazolo[4,3-d]pyrimidin-7-one], for which the pIC50 was 4.30 to 5.30. As for `C[C@H](CC(F)(F)F)C(=O)N1CCC(O)(CN2CCOCC2=O)C2(CCCC2)C1` (stereo partly drawn) [Example 32, 4-((10-Hydroxy-7-((R)-4,4,4-trifluoro-2-methylbutanoyl)-7-azaspiro[4.5]decan-10-yl)methyl)morpholin-3-one], the pIC50 was 3.60 to 4.30. For the compound `CN(C)C(=O)c1cn(CC2(O)CCN(C(=O)N3CCC(C(F)(F)F)C3)CC23CCCC3)c(=O)cc1-c1ccccc1` (centres unmarked) [Example 88, 1-((10-Hydroxy-7-(3-(trifluoromethyl)pyrrolidine-1-carbonyl)-7-azaspiro[4.5]decan-10-yl)methyl)-N,N-dimethyl-6-oxo-4-phenyl-1,6-dihydropyridine-3-carboxamide], the pIC50 was greater than 6.30. For `Cn1cc(-c2ccn(C[C@]3(O)CCN(C(=O)N4CCNC[C@H]4c4ccccc4)CC34CCCC4)c(=O)c2)cn1` [Example 329, 1-(((S)-10-Hydroxy-7-((R)-2-phenylpiperazine-1-carbonyl)-7-azaspiro[4.5]decan-10-yl)methyl)-4-(1-methyl-1H-pyrazol-4-yl)pyridin-2(1H)-one], the pIC50 is greater than 6.30. Take `CN(C)C(=O)C1CN(C[C@]2(O)CCN(C(=O)[C@H](CO)CC3CCCCC3)CC2(C)C)C(=O)CC1c1ccccc1` (stereo partly drawn) [Example 26, 1-(((S)-1-((S)-3-Cyclohexyl-2-(hydroxymethyl)propanoyl)-4-hydroxy-3,3-dimethylpiperidin-4-yl)methyl)-N,N-dimethyl-6-oxo-4-phenylpiperidine-3-carboxamide]: the pIC50 is greater than 6.30.

Turning to `O=C(NCc1cccnc1)N1CCC(O)(Cn2cnc(-c3ccccc3)cc2=O)C2(CCCC2)C1` (centres unmarked) [Example 199, 10-Hydroxy-10-((6-oxo-4-phenylpyrimidin-1(6H)-yl)methyl)-N-(pyridin-3-ylmethyl)-7-azaspiro[4.5]decane-7-carboxamide], the pIC50 is 3.60 to 4.30. The result for `CS(=N)(=O)c1cn(CC2(O)CCN(C(=O)N3CCOC[C@H]3c3ccccc3)CC23CCCC3)c(=O)cc1-c1ccccc1` (stereo partly drawn) [Example 190, 1-((10-Hydroxy-7-((R)-3-phenylmorpholine-4-carbonyl)-7-azaspiro[4.5]decan-10-yl)methyl)-5-(S-methylsulfonimidoyl)-4-phenylpyridin-2(1H)-one] reads greater than 6.30; that for `O=C(N1CC[C@@](O)(Cn2ccc3ncncc3c2=O)C2(CCCC2)C1)N1CCNC[C@H]1c1ccccc1` [Example 185, 6-(((S)-10-Hydroxy-7-((R)-2-phenylpiperazine-1-carbonyl)-7-azaspiro[4.5]decan-10-yl)methyl)pyrido[4,3-d]pyrimidin-5(6H)-one], greater than 6.30; that for `CN(C)C(=O)c1cn(CC2(O)CCN(C(=O)N(C)Cc3ccccc3)CC23CCCC3)c(=O)cc1-c1ccccc1` (centres unmarked) [Example 87, N-Benzyl-10-((5-(dimethylcarbamoyl)-2-oxo-4-phenylpyridin-1(2H)-yl)methyl)-10-hydroxy-N-methyl-7-azaspiro[4.5]decane-7-carboxamide], greater than 6.30. In the case of `COc1cc2ccn(CC3(O)CCN(C(=O)[C@H](C)CC4CCCCC4)CC34CCCC4)c(=O)c2cc1OC` (stereo partly drawn) [Example 146, 2-((7-((R)-3-Cyclohexyl-2-methylpropanoyl)-10-hydroxy-7-azaspiro[4.5]decan-10-yl)methyl)-6,7-dimethoxyisoquinolin-1(2H)-one], the pIC50 is 5.30 to 6.30. The result for `C[C@H](CC(F)(F)F)C(=O)N1CCC(O)(Cn2cnc3nc(N4CCN(C)CC4)ncc3c2=O)C2(CCCC2)C1` (stereo partly drawn) [Example 163, 3-((10-Hydroxy-7-((R)-4,44-trifluoro-2-methylbutanoyl)-7-azaspiro[4.5]decan-10-yl)methyl)-7-(4-methylpiperazin-1-yl)pyrimido[4,5-d]pyrimidin-4(3H)-one] reads 5.30 to 6.30; that for `COc1cc2ncn(CC3(O)CCN(C(=O)[C@H](C)CC4CCCCC4)CC34CCCC4)c(=O)c2cc1OC` (stereo partly drawn) [Example 52, 3-((7-((R)-3-Cyclohexyl-2-methylpropanoyl)-10-hydroxy-7-azaspiro[4.5]decan-10-yl)methyl)-6,7-dimethoxyquinazolin-4(3H)-one], 5.30 to 6.30.

Turning to `CC1(C)CN(C(=O)N2CCOC[C@H]2c2ccccc2)CC[C@@]1(O)Cn1ccc(-c2ccccc2)cc1=O` [Example 286], the pIC50 was greater than 6.30.

As for `C[C@H](CC1CCCCC1)C(=O)N1CCC(O)(Cn2cnc3ccc(F)cc3c2=O)C2(CCCC2)C1` (stereo partly drawn) [Example 154, 3-((7-((R)-3-Cyclohexyl-2-methylpropanoyl)-10-hydroxy-7-azaspiro[4.5]decan-10-yl)methyl)-6-fluoroquinazolin-4(3H)-one], the pIC50 is greater than 6.30.

On to `O=C(NCC(F)(F)F)N1CCC(O)(Cn2cnc(-c3ccccc3)cc2=O)C2(CCCC2)C1` (centres unmarked) [Example 196, 10-Hydroxy-10-((6-oxo-4-phenylpyrimidin-1(6H)-yl)methyl)-N-(2,2,2-trifluoroethyl)-7-azaspiro[4.5]decane-7-carboxamide], for which the pIC50 was 4.30 to 5.30. On to `C[C@H](CC1CCCCC1)C(=O)N1CCC(O)(CN2Cc3cccnc3C2=O)C2(CCCC2)C1` (stereo partly drawn) [Example 102, 6-((7-((R)-3-Cyclohexyl-2-methylpropanoyl)-10-hydroxy-7-azaspiro[4.5]decan-10-yl)methyl)-5,6-dihydro-7H-pyrrolo[3,4-b]pyridin-7-one], for which the pIC50 was 4.30 to 5.30.

As for `O=C(N1CC[C@@](O)(Cn2ccc(-c3ccccc3F)cc2=O)C2(CCCC2)C1)N1CCNC[C@H]1c1cccc(F)c1` [Example 391, 4-(2-Fluorophenyl)-1-(((S)-7-((R)-2-(3-fluorophenyl)pipera-zine-1-carbonyl)-10-hydroxy-7-azaspiro[4.5]decan-10-yl)methyl)pyri-din-2(1H)-one], the pIC50 was greater than 6.30. On to `O=C1COCCN1CC1(O)CCN(C(=O)N2CCNC[C@H]2c2ccccc2)CC12CCCC2` (stereo partly drawn) [Example 118, 4-((10-Hydroxy-7-((R)-2-phenylpiperazine-1-carbonyl)-7-azaspiro[4.5]decan-10-yl)methyl)morpholin-3-one], for which the pIC50 was 5.30 to 6.30. As for `C[C@H](CC(F)(F)F)C(=O)N1CCC(O)(Cn2cc(C(=O)N(C)C)c3ccccc3c2=O)C2(CCCC2)C1` (stereo partly drawn) [Example 130, 2-((10-Hydroxy-7-((R)-4,4,4-trifluoro-2-methylbutanoyl)-7-azaspiro[4.5]decan-10-yl)methyl)-N,N-dimethyl-1-oxo-1,2-dihydroisoquinoline-4-carboxamide], the pIC50 is 3.60 to 4.30. Regarding `C[C@@]1(c2ccccc2)CNCCN1C(=O)N1CC[C@@](O)(Cn2cnc(-c3ccccc3)cc2=O)C2(CCCC2)C1` [Example 390, 3-(((S)-10-Hydroxy-7-((R)-2-methyl-2-phenylpiperazine-1-carbonyl)-7-azaspiro[4.5]decan-10-yl)methyl)-6-phenylpyrimidin-4(3H)-one], the pIC50 is greater than 6.30.

In general, pIC50 refers to the IC50 on a negative log10 scale, so that one unit is a factor of ten.
